Where two headings read alike, the source gives them in different places.
What was measured:
[1] = tested on: MCF-7 human breast cancer cells; test: MCF-7 breast cancer cell growth inhibition; assay type: cell-based; details: Homo sapiens, MCF7
[2] = target: T1, human cytochrome P-450 reductase (Homo sapiens, UniProt P16435); test: Inhibition of human cytochrome P-450 reductase (selectivity); assay type: biochemical
T1 sequence (P16435 1-677): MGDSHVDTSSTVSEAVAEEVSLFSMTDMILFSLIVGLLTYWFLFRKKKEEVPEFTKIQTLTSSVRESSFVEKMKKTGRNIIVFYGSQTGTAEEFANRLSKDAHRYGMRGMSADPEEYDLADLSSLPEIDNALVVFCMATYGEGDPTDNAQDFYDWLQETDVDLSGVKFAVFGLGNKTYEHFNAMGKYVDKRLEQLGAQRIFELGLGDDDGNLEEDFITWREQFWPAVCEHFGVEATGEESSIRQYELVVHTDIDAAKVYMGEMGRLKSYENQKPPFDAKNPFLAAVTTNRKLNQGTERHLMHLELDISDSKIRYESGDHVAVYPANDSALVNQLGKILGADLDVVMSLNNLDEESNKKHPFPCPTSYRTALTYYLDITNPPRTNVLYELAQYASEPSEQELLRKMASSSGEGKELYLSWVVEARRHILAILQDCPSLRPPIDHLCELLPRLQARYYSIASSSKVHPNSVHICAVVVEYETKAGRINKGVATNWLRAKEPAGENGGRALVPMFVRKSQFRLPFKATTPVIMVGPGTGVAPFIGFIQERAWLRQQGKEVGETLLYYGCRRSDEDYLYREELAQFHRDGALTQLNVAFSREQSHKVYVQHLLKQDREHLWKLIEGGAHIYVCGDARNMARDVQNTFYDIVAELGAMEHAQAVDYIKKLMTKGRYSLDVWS
Experimental: (§1) Based upon the observation that PX-916 was rapidly converted to PX-960 in aqueous solution, the ability of PX-960 to inhibit purified human TR was measured and found to be similar to that of PX-916 (Table 2). PX-916 was a selective inhibitor of human TR compared to two other NADPH dependent reductases with a selectivity of at least 200 for human glutathione reductase and human cytochrome P-450 reductase (Table 3).

[3] = target: T2, human cytochrome P-450 reductase (versus human thioredoxin reductase, TR) (Homo sapiens, UniProt P16435); test: as above; assay type: biochemical; details: human
T2 sequence (P16435 1-677): T1 sequence (P16435 1-677)
Experimental: as §1

[4] = target: T3, cellular thioredoxin reductase (Homo sapiens, UniProt Q16881); test: Inhibition of cellular thioredoxin reductase in MCF-7 cells grown in 1 μM Se; assay type: cell-based
T3 sequence (Q16881 1-649): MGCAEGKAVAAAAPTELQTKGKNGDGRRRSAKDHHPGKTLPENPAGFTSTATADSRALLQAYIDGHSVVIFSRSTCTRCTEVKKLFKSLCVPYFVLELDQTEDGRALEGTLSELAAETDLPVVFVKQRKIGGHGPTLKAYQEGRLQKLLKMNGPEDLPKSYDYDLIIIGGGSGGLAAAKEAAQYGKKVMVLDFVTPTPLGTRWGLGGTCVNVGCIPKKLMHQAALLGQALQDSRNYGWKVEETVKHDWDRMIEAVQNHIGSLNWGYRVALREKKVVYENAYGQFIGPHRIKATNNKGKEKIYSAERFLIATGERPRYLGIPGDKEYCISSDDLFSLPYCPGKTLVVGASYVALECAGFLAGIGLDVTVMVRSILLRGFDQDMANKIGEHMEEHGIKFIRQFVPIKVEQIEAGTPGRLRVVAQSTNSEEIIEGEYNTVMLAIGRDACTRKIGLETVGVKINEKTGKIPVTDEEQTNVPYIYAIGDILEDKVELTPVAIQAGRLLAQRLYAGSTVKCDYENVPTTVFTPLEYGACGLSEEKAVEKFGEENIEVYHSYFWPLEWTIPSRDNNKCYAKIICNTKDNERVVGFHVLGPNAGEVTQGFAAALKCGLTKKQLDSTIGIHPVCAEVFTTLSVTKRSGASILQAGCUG
Experimental: FIG. 3. Inhibition of cellular thioredoxin reductase by PX-916. MCF-7 human breast cancer cells grown in medium containing 1 μM Se for 7 days were treated with PX-916 and total cellular thioredoxin reductase activity measured. A. Time course of the inhibition of the thioredoxin reductase on exposure to 1 μM PX-916. […] In both cases values are the mean of 3 separate determinations and bars are S.E. P≦0.04 or **p≦0.01. C. Inhibition of MCF-7 tumor thioredoxin reductase by PX-916. MCF-7 human breast cancer xenografts were grown in female scid mice implanted with 17-β-estradiol 60 day slow-release pellets until they were ˜300 mm^3. The mice were administered a single dose of PX-916 of 25 mg/kg i.v. and tumors harvested at various times. Thioredoxin reductase activity was measured in tumor homogenates. Values are the mean of 3 mice at each time point and bars are SE. **p<0.01 compared to pretreatment value.
Cell growth inhibition of MCF-7 human breast cancer cells by palmarumycin, PX-916 and PX-960 occurred at similar concentration of 1 to 3 μM (Table 2). MCF-7 human breast cancer cells were grown in medium containing 1 μM selenium (Se) for 7 days which increased cellular thioredoxin reductase activity by about 5 fold as previously reported. […] Thus, inhibition of purified human TR, MCF-7 cellular TR and cell growth inhibition of MCF-7 cells by PX-916 occurred at about the same concentrations.

[5] = tested on: A-673 human rhabdomyosarcoma xenografts; test: Antitumor activity, A-673 rhabdomyosarcoma xenograft; assay type: in vivo, mouse; design: dose or concentration left out as unconfirmed; details: ip
Experimental: FIG. 4. Antitumor activity of PX-916. A. Female beige nude mice were inoculated subcutaneously (s.c.) with 10^7 A-673 rhabdomyosarcoma cells. […] B. Female scid mice were inoculated s.c. with 10^7 SHP-77 human small cell lung cancer cells. When tumors were 130 mm^3 on day 17 (arrow) dosing was begun with (∘) vehicle alone; (▪) PX-916 10 mg/kg i.v. daily for 8 doses; (▴) PX-916 25 mg/kg i.v. daily for 5 doses. C. Female scid mice implanted 1 day previously with a 17-β-estradiol 60 day slow release pellet were inoculated s.c. with 10^7 MCF-7 human breast cancer cells. When tumors were 180 mm^3 on day 8 (arrow) dosing was begun with (∘) vehicle alone; (⋄) PX-916 27.5 mg/kg i.v. daily for 5 doses. In both A and B values are the mean of 8 mice per group and bars are SE.
A single intravenous (i.v.) dose of PX-916 of 25 mg/kg inhibited MCF-7 human tumor xenograft TR up to about 60% at 24 hr and the inhibition was maintained for at least 48 hr (FIG. 3C). […] In this study 3 of eight nice had no histologically detectable tumor when the study was terminated on day 42.

**Q.** Which results are given for `NCC(=O)Oc1ccc2c3c(cccc13)OC1(C=CC(=O)c3c(O)cccc31)O2` (centres unmarked) [PX-916, O-glycyl naphthoquinone spiroketal]?
**A.** IC50 ([1]; Table 1, read-out: MCF-7 growth inhibition IC50): 3.1 µM; IC50 ([1]; Table 2, read-out: Inhibition of MCF-7 breast cancer cell growth IC50): 3.1 µM; IC50 ([1]; read-out: IC50 MCF-7 cell growth): 3.1 µM; concentration increase needed to inhibit cytochrome P-450 reductase [2]: greater than 100 fold; IC50 ([2]; Table 3, read-out: Inhibition IC50, cytochrome P-450 reductase (recombinant)): 29.2 µM; selectivity ratio ([3]; Table 3, read-out: Selectivity for TR vs cytochrome P-450 reductase): 104; selectivity ratio ([3]; read-out: selectivity for human TR vs human cytochrome P-450 reductase): ≥ 200; time of maximum inhibition of cellular TR ([4]; MCF-7 cells exposed to 1 μM): 24 h; concentration of maximum inhibition of cellular TR ([4]; MCF-7 cells, 17 hours exposure): 0.5 µM; tumor growth inhibition [5]: 97%; tumor growth rate ([5]; 5 days after dosing): 5±3 mm^3/d

Reference: patent US20120226031A1, “PALMARUMYCIN BASED INHIBITORS OF THIOREDOXIN AND METHODS OF USING SAME” (ARIZONA BOARD OF REGENTS, ACTING ON BEHALF OF THE …, priority 2005, published 2012)
